In patent US11534423B2, “Methods and compositions for improving exercise endurance, performance, or tolerance” (Washington University, priority 2019, dated 2022):

What was measured:
Wild-type mice = assay: acute exercise test to exhaustion after intraperitoneal injection; assay type: in vivo; conditions: PF-429242 or vehicle, N=3, FIG. 14
Experimental: Exercise endurance: Mice will undergo a single bout of a graded exercise test to exhaustion using a 4-lane treadmill on a 0% incline, with an electric grid at the back of each treadmill. Three days before the endurance test, mice will have 3 days of acclimation at 10 m/min at 0% incline for 5 min. The test will involve a 5 min acclimation period on the treadmill (turned off), followed by: 5 m/min for 5 min; 10 m/min for 5 min; 15 m/min for 10 min; 25 m/min for 10 min; and finally, 30 m/min until exhaustion is reached. Exhaustion is defined as the inability of the mouse to resume running within 10 s after direct contact on the electric grid and inability to right itself when placed on its back.
Wild-type mice were treated with PF-429242 or vehicle via intraperitoneal injection, and subjected to an acute exercise test to exhaustion (N=3).

S1P = biological target: T1, S1P (Mus musculus, UniProt Q9WTZ2); conditions: 30 mg/kg i.p. injection every 6 hrs for 24 hr; cited from earlier work
T1 construct: from tissue; host or cells: mouse liver (in vivo, i.p. dosing; earlier mouse studies reported elsewhere)
T1 sequence (Q9WTZ2 187-1052): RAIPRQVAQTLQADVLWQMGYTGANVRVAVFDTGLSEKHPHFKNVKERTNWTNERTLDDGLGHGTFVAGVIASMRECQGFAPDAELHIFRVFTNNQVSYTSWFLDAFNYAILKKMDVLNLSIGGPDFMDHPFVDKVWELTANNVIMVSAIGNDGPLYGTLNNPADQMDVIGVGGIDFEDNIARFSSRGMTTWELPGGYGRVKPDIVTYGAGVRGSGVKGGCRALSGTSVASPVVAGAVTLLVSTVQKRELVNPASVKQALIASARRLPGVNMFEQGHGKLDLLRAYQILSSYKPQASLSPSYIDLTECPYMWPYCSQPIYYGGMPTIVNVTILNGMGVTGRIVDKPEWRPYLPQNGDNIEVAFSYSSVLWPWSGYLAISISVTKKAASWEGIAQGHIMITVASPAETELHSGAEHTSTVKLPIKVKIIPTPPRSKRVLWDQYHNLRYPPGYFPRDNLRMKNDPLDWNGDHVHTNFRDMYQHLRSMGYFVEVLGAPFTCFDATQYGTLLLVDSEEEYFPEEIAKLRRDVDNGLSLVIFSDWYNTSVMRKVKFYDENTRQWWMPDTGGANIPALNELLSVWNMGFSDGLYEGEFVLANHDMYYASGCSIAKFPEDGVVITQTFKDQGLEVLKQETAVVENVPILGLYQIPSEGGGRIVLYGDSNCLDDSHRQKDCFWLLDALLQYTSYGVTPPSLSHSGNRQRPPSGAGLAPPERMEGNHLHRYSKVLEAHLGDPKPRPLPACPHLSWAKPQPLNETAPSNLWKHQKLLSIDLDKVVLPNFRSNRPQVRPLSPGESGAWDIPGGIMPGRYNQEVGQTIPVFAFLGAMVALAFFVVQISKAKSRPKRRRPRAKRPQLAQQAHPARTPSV

## CCN(CC)Cc1ccc(C(=O)N(CCc2ccccc2OC)[C@@H]2CCNC2)cc1 [PF-429242]
Wild-type mice
  exercise tolerance: enhanced exercise tolerance
S1P
  S1P inhibition in mouse liver: effectively inhibits S1P
